Where two headings read alike, the source gives them in different places. Each block holds one compound with its values, some of them ahead of it.
Columns and labels:
A673 = test: MTT cell proliferation assay, A673; format: cell-based; details: Homo sapiens, A673, Ewing's Sarcoma, read-out: Cell killing activity IC50
Procedure: (§1) Cells were plated in 96-well tissue culture plates at a density of 1 × 10^3 cells/well, allowed to attach 24 h, and then left untreated or treated with growth medium containing different concentrations of the tested RCn compounds previously dissolved in PBS. After different time periods the cell vitality was determined by MTT assay according to the manufacture’s instruction (Promega). Results are reported as the micromolar concentration of RCn reducing cell survival to 50% (IC50).

143.98.2 = test: MTT cell proliferation assay, 143.98.2; format: cell-based; details: Homo sapiens, 143.98.2, Osteosarcoma, read-out: Cell killing activity IC50
Procedure: as §1

SK-N-AS = test: MTT cell proliferation assay, SK-N-AS; format: cell-based; details: Homo sapiens, Neuroblastoma, read-out: Cell killing activity IC50
Procedure: as §1

S462TY = test: MTT cell proliferation assay, S462TY; format: cell-based; details: Homo sapiens, Malignant Peripheral Nerve Sheath Tumor, read-out: Cell killing activity IC50
Procedure: as §1

Ramos = test: MTT cell proliferation assay, Ramos; format: cell-based; details: Homo sapiens, Lymphoma, read-out: Cell killing activity IC50
Procedure: as §1

Rh41 = test: MTT cell proliferation assay, Rh41; format: cell-based; details: Homo sapiens, Rh41, Rhabdomyosarcoma, read-out: Cell killing activity IC50
Procedure: as §1

CHLA-20 cells = test: Cell killing activity of drugs complexed with RC16 (MTT); format: cell-based, human; details: CHLA-20, free drug at concentration corresponding to that present in the complex, 48 h, percent of untreated cells
Procedure: (§2) Aqueous solutions of RC16 (10 mM, 1 mL) were mixed with ethanol solutions of Doxorubicin, Paclitaxel or Etoposide (1 mM, 1 mL). After stirring 12 h at 25 C the mixtures were dialyzed through 5000 Da MW cutoff dialysis membranes against 100 ml water by changing the external medium every 8 h for 3 days. The RC16-drug complex collected after dialysis was freeze-dried and the solid residue obtained was spectrophotometrically analysed to estimate the percentage of drug in the final product. The anticancer activity of each complexed drug was evaluated in CHLA-20 as the difference between the activity of the complex and the pure RC16 at the same concentration of the complex.

[1] = Encapsulation of drugs in RC16 micelles; format: physicochemical; details: drug complexed in RC16 micelles, after dialysis and freeze-drying
Procedure: as §2

Compound: CCCCCCCCC1CN2CCCN3CCCCCC132 (stereo not drawn) [RC10, 2-octyl-4,8-diazatricyclo[6.5.0.0^1,^4]tridecane]
IC50 (A673; 24 h): 2600 nM
IC50 (A673; 48 h): 2020 nM
IC50 (143.98.2; 24 h): 2550 nM
IC50 (143.98.2; 48 h): 1680 nM
IC50 (SK-N-AS; 24 h): 2140 nM
IC50 (SK-N-AS; 48 h): 1560 nM
IC50 (S462TY; 24 h): 2390 nM
IC50 (S462TY; 48 h): 1780 nM
IC50 (Ramos; 24 h): 2100 nM
IC50 (Ramos; 48 h): 1030 nM
IC50 (Rh41; 24 h): 2850 nM
IC50 (Rh41; 48 h): 2030 nM

Compound: CCCCCCCCCCC1CN2CCCN3CCCCCC132 (stereo not drawn) [RC12, 2-decyl-4,8-diazatricyclo[6.5.0.0^1,^4]tridecane]
IC50 (A673; 24 h): 1820 nM
IC50 (A673; 48 h): 1650 nM
IC50 (143.98.2; 24 h): 1980 nM
IC50 (143.98.2; 48 h): 1240 nM
IC50 (SK-N-AS; 24 h): 1870 nM
IC50 (SK-N-AS; 48 h): 710 nM
IC50 (S462TY; 24 h): 2000 nM
IC50 (S462TY; 48 h): 1090 nM
IC50 (Ramos; 24 h): 1180 nM
IC50 (Ramos; 48 h): 740 nM
IC50 (Rh41; 24 h): 1750 nM
IC50 (Rh41; 48 h): 1160 nM

Encapsulation efficiency (weight percentage of drug in the final complex) [1]: 1.0 ± 0.59%
Compound: COc1cc([C@@H]2c3cc4c(cc3[C@@H](O[C@@H]3O[C@@H]5CO[C@@H](C)O[C@H]5[C@H](O)[C@H]3O)[C@H]3COC(=O)[C@H]23)OCO4)cc(OC)c1O [ETO, Etoposide]
Cell viability, % CTR (free drug) (CHLA-20 cells): 65.80 ± 5.76 % CTR

Compound: CCCCCCCCCCCCCCCCC1CN2CCCN3CCCCCC132 (stereo not drawn) [RC18, 2-hexadecyl-4,8-diazatricyclo[6.5.0.0^1,^4]tridecane]
IC50 (A673; 24 h): 1030 nM
IC50 (A673; 48 h): 980 nM
IC50 (143.98.2; 24 h): 920 nM
IC50 (143.98.2; 48 h): 650 nM
IC50 (SK-N-AS; 24 h): 1230 nM
IC50 (SK-N-AS; 48 h): 750 nM
IC50 (S462TY; 24 h): 1670 nM
IC50 (S462TY; 48 h): 880 nM
IC50 (Ramos; 24 h): 830 nM
IC50 (Ramos; 48 h): 170 nM
IC50 (Rh41; 24 h): 1010 nM
IC50 (Rh41; 48 h): 820 nM

Compound: CCCCCCCCCCCCCCCCCCC1CN2CCCN3CCCCCC132 (stereo not drawn) [RC20, 2-octadecyl-4,8-diazatricyclo[6.5.0.0^1,^4]tridecane]
IC50 (A673; 24 h): 1220 nM
IC50 (A673; 48 h): 1350 nM
IC50 (143.98.2; 24 h): 1090 nM
IC50 (143.98.2; 48 h): 830 nM
IC50 (SK-N-AS; 24 h): 1600 nM
IC50 (SK-N-AS; 48 h): 900 nM
IC50 (S462TY; 24 h): 1830 nM
IC50 (S462TY; 48 h): 1160 nM
IC50 (Ramos; 24 h): 970 nM
IC50 (Ramos; 48 h): 200 nM
IC50 (Rh41; 24 h): 1680 nM
IC50 (Rh41; 48 h): 1120 nM

Encapsulation efficiency (weight percentage of drug in the final complex) [1]: 2.3 ± 0.78%
Compound: COc1cccc2c1C(=O)c1c(O)c3c(c(O)c1C2=O)C[C@@](O)(C(=O)CO)C[C@@H]3O[C@H]1C[C@H](N)[C@H](O)[C@H](C)O1 [DOXO, Doxorubicin]
Cell viability, % CTR (free drug) (CHLA-20 cells): 27.62 ± 0.55 % CTR

Compound: CCCCCCCCCCCCC1CN2CCCN3CCCCCC132 (stereo not drawn) [RC14, 2-dodecyl-4,8-diazatricyclo[6.5.0.0^1,^4]tridecane]
IC50 (A673; 24 h): 1270 nM
IC50 (A673; 48 h): 1130 nM
IC50 (143.98.2; 24 h): 1310 nM
IC50 (143.98.2; 48 h): 780 nM
IC50 (SK-N-AS; 24 h): 1200 nM
IC50 (SK-N-AS; 48 h): 630 nM
IC50 (S462TY; 24 h): 1810 nM
IC50 (S462TY; 48 h): 950 nM
IC50 (Ramos; 24 h): 960 nM
IC50 (Ramos; 48 h): 220 nM
IC50 (Rh41; 24 h): 1360 nM
IC50 (Rh41; 48 h): 970 nM

Encapsulation efficiency (weight percentage of drug in the final complex) [1]: 1.8 ± 0.73%
Compound: CC(=O)O[C@H]1C(=O)[C@@]2(C)[C@H]([C@H](OC(=O)c3ccccc3)[C@]3(O)C[C@H](OC(=O)[C@H](O)[C@@H](NC(=O)c4ccccc4)c4ccccc4)C(C)=C1C3(C)C)[C@]1(OC(C)=O)CO[C@@H]1C[C@@H]2O [PTX, Paclitaxel]
Cell viability, % CTR (free drug) (CHLA-20 cells): 56.93 ± 4.61 % CTR

Compound: CCCCCC1CN2CCCN3CCCCCC132 (stereo not drawn) [RC7, 2-pentyl-4,8-diazatricyclo[6.5.0.0^1,^4]tridecane]
IC50 (A673; 24 h): 5730 nM
IC50 (A673; 48 h): 4110 nM
IC50 (143.98.2; 24 h): 4510 nM
IC50 (143.98.2; 48 h): 3780 nM
IC50 (SK-N-AS; 24 h): 5210 nM
IC50 (SK-N-AS; 48 h): 3430 nM
IC50 (S462TY; 24 h): 5620 nM
IC50 (S462TY; 48 h): 3900 nM
IC50 (Ramos; 24 h): 4550 nM
IC50 (Ramos; 48 h): 3120 nM
IC50 (Rh41; 24 h): 5780 nM
IC50 (Rh41; 48 h): 4010 nM

From publication PMC5040747, “Preparation and Evaluation of a Novel Class of Amphiphilic Amines as Antitumor Agents and Nanocarriers for Bioactive Molecules” (Pharmaceutical Research, 2016)
